Measurements taken from the supplement of paper PMC10307832.

Tests used:
Assay in all cases: relative viability (nuclei count vs DMSO), 5 days (fraction); higher = more cells survive
QS11 + Lapatinib = compound: C1CC2=C(C1)C=C(C=C2)OC3=NC(=C4C(=N3)N(C=N4)CC5=CC=C(C=C5)C6=CC=CC=C6)N[C@@H](CC7=CC=CC=C7)CO [QS11] + CS(=O)(=O)CCNCc1ccc(-c2ccc3ncnc(Nc4ccc(OCc5cccc(F)c5)c(Cl)c4)c3c2)o1 [Lapatinib] (partner 2 µM)
In short: (§1)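 Relative viability was taken as the ratio of nuclei in treated wells to nuclei in vehicle wells. Lung cancer cell lines in 1536-well plates received compounds by pin tool one day after seeding, either one drug alone or a fixed anchor-drug dose plus five library-drug doses (not always all listed) in √10 steps. Nuclei were counted on 4× images after 5 days of treatment, and values are medians of duplicate plates.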

QS11 + Pictilisib = compound: C1CC2=C(C1)C=C(C=C2)OC3=NC(=C4C(=N3)N(C=N4)CC5=CC=C(C=C5)C6=CC=CC=C6)N[C@@H](CC7=CC=CC=C7)CO [QS11] + CS(=O)(=O)N1CCN(Cc2cc3nc(-c4cccc5[nH]ncc45)nc(N4CCOCC4)c3s2)CC1 [Pictilisib] (partner 1 µM)
In short: as §1

QS11 + Alpelisib = compound: C1CC2=C(C1)C=C(C=C2)OC3=NC(=C4C(=N3)N(C=N4)CC5=CC=C(C=C5)C6=CC=CC=C6)N[C@@H](CC7=CC=CC=C7)CO [QS11] + Cc1nc(NC(=O)N2CCC[C@H]2C(N)=O)sc1-c1ccnc(C(C)(C)C(F)(F)F)c1 [Alpelisib] (partner 2 µM)
In short: as §1

Darinaparsin + OSI-027 = compound: C[As](C)SC[C@H](NC(=O)CC[C@H](N)C(=O)O)C(=O)NCC(=O)O [Darinaparsin] + COc1cccc2cc(-c3nc([C@H]4CC[C@H](C(=O)O)CC4)n4ncnc(N)c34)[nH]c12 [OSI-027] (partner 0.5 µM)
In short: as §1

## LCLC-97TM1
QS11 + Lapatinib; first compound 0.08 µM
  relative viability: 0.484
QS11 + Lapatinib; first compound 0.253 µM
  relative viability: 1.12
QS11 + Lapatinib; first compound 0.8 µM
  relative viability: 0.96
QS11 + Lapatinib; first compound 2.53 µM
  relative viability: 1.24
QS11 + Lapatinib; first compound 8 µM
  relative viability: 0.673
QS11 + Pictilisib; first compound 0.08 µM
  relative viability: 0.14
QS11 + Pictilisib; first compound 0.253 µM
  relative viability: 0.193
QS11 + Pictilisib; first compound 0.8 µM
  relative viability: 0.209
QS11 + Pictilisib; first compound 2.53 µM
  relative viability: 0.302
QS11 + Pictilisib; first compound 8 µM
  relative viability: 0.289
QS11 + Alpelisib; first compound 0.08 µM
  relative viability: 0.225
QS11 + Alpelisib; first compound 0.253 µM
  relative viability: 0.233
QS11 + Alpelisib; first compound 0.8 µM
  relative viability: 0.201
QS11 + Alpelisib; first compound 2.53 µM
  relative viability: 0.323
QS11 + Alpelisib; first compound 8 µM
  relative viability: 0.299
Darinaparsin + OSI-027; first compound 0.08 µM
  relative viability: 0.654
Darinaparsin + OSI-027; first compound 0.8 µM
  relative viability: 0.468
Darinaparsin + OSI-027; first compound 2.53 µM
  relative viability: 0.514
Darinaparsin + OSI-027; first compound 8 µM
  relative viability: 0.615
